Reference: patent publication US11578055B2, “Triazacyclododecansulfonamide (“TCD”)-based protein secretion inhibitors” (KEZAR LIFE SCIENCES, priority 2018, dated 2023)

What was measured:
[1] = In Vitro Microsome Stability Assay (monkey); assay type: in vitro ADME; details: monkey liver microsomes, 30 min w/ NADPH
Method in brief: (§1)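 The value reported is the percentage of parent left after 30 min, calculated from analyte/IS peak-area ratios relative to time zero by LC-MS/MS. Incubations ran at 37° C in 0.1 M potassium phosphate with NADPH and microsomes (stock 20 mg/mL), with compound added from a 0.25 mM DMSO stock. Acetonitrile containing IS stopped the reactions.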

[2] = In Vitro Microsome Stability Assay (human); assay type: in vitro ADME; details: human liver microsomes, 30 min w/ NADPH
Method in brief: as §1

[3] = system: multiple myeloma cell line U266B1; test: U266 Cell Viability Assay; assay type: cell-based, human; details: Homo sapiens, U-266; 48 hr, U266, Celltiter-Glo
Method in brief: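 U266B1 myeloma cells in RPMI 1640 with 10% FBS were treated with compound dilutions for 48 h at 37° C, 5% CO2. Viability was read as CellTiter-Glo luminescence. Data for structures drawn without stereochemistry refer to stereoisomer mixtures.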

[4] = system: full length TNFα (amino acids 1-233) fused to Gaussia Luciferase; test: Dox Induced TNFα-FL-Gluc Assay; assay type: cell-based; details: 24 hr, Dox inducible, 293FRT/TO cells; read-out: 24 hr Dox Inducible TNFaFLGluc 293FRT/TO: Mean IC50
Method in brief: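 Stable Flp-In 293 T-REx line expressing doxycycline-inducible full-length TNFα fused to Gaussia luciferase; cells plated the day before, then treated with compound dilutions in doxycycline-containing medium at 37° C, 5% CO2. Unspecified stereocentres mean stereoisomer mixtures were tested.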

[5] = system: PD1 signal sequence plus 10 amino acids fused to Gaussia Luciferase (PD1-ss+10aa/Gaussia Luciferase); test: Dox Induced PD1-ss-Gluc Assay; assay type: cell-based; details: 24 hr, Dox inducible, 293FRT/TO cells; read-out: 24 hr Dox Inducible PD1ssGluc 293FRT/TO: Mean IC50
Method in brief: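 Stable Flp-In 293 T-REx line expressing the fusion under tetracycline-inducible control, plated the day before assay. Compound dilutions added with doxycycline and incubated at 37 °C, 5% CO2; unspecified stereocentres mean data refer to stereoisomer mixtures.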

[6] = system: multiple myeloma cell line NCl-H929; test: H929 Cell Viability Assay; assay type: cell-based, human; details: Homo sapiens, NCI-H929, 48 h, H929, Celltiter-Glo
Method in brief: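 NCI-H929 myeloma cells in RPMI 1640 with 10% FBS were treated with compound dilutions for 48 h at 37 °C, and viability was then read by CellTiter-Glo luminescence. Compounds drawn without stereochemistry were tested as stereoisomer mixtures.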

[7] = In Vitro Microsome Stability Assay (rat); assay type: in vitro ADME; details: rat liver microsomes, 30 min w/ NADPH
Method in brief: as §1

[8] = system: full length IL-2 (amino acids 1-153) fused to Gaussia Luciferase; test: Dox Induced IL2-FL-Gluc Assay; assay type: cell-based; details: 24 hr, Dox inducible, 293FRT/TO cells; read-out: 24 hr Dox Inducible IL2FLGluc 293FRT/TO: Mean IC50
Description: FIp-In 293 T-REx™ cells were transfected with pcDNA™5/FRT/TO plasmid inserted with cDNA encoding Gaussia Luciferase fused to the 3′ end of cDNA encoding full length IL-2 (amino acids 1-153). Transfected cells were selected for resistance to the selectable markers Hygromycin and Blasticidin to create a stable cell line that contained the IL-2-FL/Gaussia Luciferase cDNA insert whose expression was regulated under the T-REx™ system. The day before assay, cells were trypsinized and plated in 384-well tissue culture plates. The next day, compound dilutions in DMSO/media containing doxycycline were added to the wells and incubated at 37° C., 5% CO2.
For chemical structures that include one or more stereoisomers, but are illustrated without indicating stereochemistry, the assay data refers to a mixture of stereoisomers.

[9] = In Vitro Microsome Stability Assay (mouse); assay type: in vitro ADME; details: mouse liver microsomes, 30 min w/ NADPH
Method in brief: as §1

SMILES	Liver Microsome Stability-% Left after 30 min w/ NADPH (%) Monkey [1]	Liver Microsome Stability-% Left after 30 min w/ NADPH (%) Human [2]	EC50 [3]	IC50 [4]	IC50 [5]	EC50 [6]	Liver Microsome Stability-% Left after 30 min w/ NADPH (%) Rat [7]	IC50 [8]	Liver Microsome Stability-% Left after 30 min w/ NADPH (%) Mouse [9]
C[C@H]1CN(S(=O)(=O)c2ccc(N(C)C)cc2)CCCN(CC2CCCCC2)CCCN(S(=O)(=O)N2CCN(C(=O)c3ccccc3)CC2)C1 [A100, 4-{[(3S)-5-[(4-benzoylpiperazin-1-yl)sulfonyl]-9-(cyclohexylmethyl)-3-methyl-1,5,9-triazacyclododecan-1-yl]sulfonyl}-N,N-dimethylaniline]	0.04%	0.22%	> 25000 nM	> 25000 nM	1150 nM	> 25000 nM	2.18%	1560 nM	0.1%
C[C@H]1CN(S(=O)(=O)c2ccc(N(C)C)cc2)CCCN(CC2CCCCC2)CCCN(S(=O)(=O)N2CC(c3ccccc3)C2)C1 [A101, 4-{[(3S)-9-(cyclohexylmethyl)-3-methyl-5-[(3-phenylazetidin-1-yl)sulfonyl]-1,5,9-triazacyclododecan-1-yl]sulfonyl}-N,N-dimethylaniline]	18.8%	30.2%	> 25000 nM	3430 nM	220 nM	> 25000 nM	25.4%	564 nM	20.8%
Cc1cc(F)ccc1N1CCN(S(=O)(=O)N2CCCN(CC3CCCCC3)CCCN(S(=O)(=O)c3ccc(N(C)C)cc3)C[C@H](C)C2)CC1 [A102, 4-{[(3S)-9-(cyclohexylmethyl)-5-{[4-(4-fluoro-2-methylphenyl)piperazin-1-yl]sulfonyl}-3-methyl-1,5,9-triazacyclododecan-1-yl]sulfonyl}-N,N-dimethylaniline]	70%	62.3%	> 25000 nM	477 nM	33.4 nM	558 nM	101.9%	90.5 nM	86.6%
C[C@H]1CN(S(=O)(=O)c2ccc(N(C)C)cc2)CCCN(C(=O)OCc2ccccc2)CCCN(S(=O)(=O)N2CCc3cc(Cl)ccc3C2)C1 [A103]	38.5%	31.6%	> 25000 nM	> 25000 nM	446 nM	> 25000 nM	36.5%	698 nM	42.2%
CCC(C)CN1CCCN(S(=O)(=O)c2ccc(N(C)C)cc2)C[C@H](C)CN(S(=O)(=O)N2CCc3cc(Cl)ccc3C2)CCC1 (stereo partly drawn) [A106, 4-{[(3S)-5-[(6-chloro-1,2,3,4-tetrahydroisoquinolin-2-yl)sulfonyl]-3-methyl-9-(2-methylbutyl)-1,5,9-triazacyclododecan-1-yl]sulfonyl}-N,N-dimethylaniline]	30.7%	7.18%	> 25000 nM	1120 nM	52.4 nM	903 nM	18.9%	126 nM	8.81%
C[C@H]1CN(S(=O)(=O)c2ccc(N(C)C)cc2)CCCN(CC2CCC2)CCCN(S(=O)(=O)N2CCc3cc(Cl)ccc3C2)C1 [A108, 4-{[(3S)-5-[(6-chloro-1,2,3,4-tetrahydroisoquinolin-2-yl)sulfonyl]-9-(cyclobutylmethyl)-3-methyl-1,5,9-triazacyclododecan-1-yl]sulfonyl}-N,N-dimethylaniline]	0.88%	1.06%	> 25000 nM	546 nM	29.6 nM	421 nM	2.05%	68.3 nM	0.62%
